Some test systems named below: SN12C renal; MOLT-4 leukemia; U251 CNS; A498 renal; NCI-H23 lung; K-562 leukemia; UACC-257 melanoma; LOX IMVI melanoma; HS 578T breast; MDA-MB-231 breast.
Experiment in all cases: inhibition of tumour cell growth, NCI panel, 48 h

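Cultured in 96-well plates, cells were exposed to test compound for 48 hours across five concentrations. Here, GI50 denotes the concentration required for 50% inhibition of growth. TGI: concentration producing complete growth inhibition.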

`CCOC(=O)C(=O)Nc1c(N(CC)CC)n2ccccc2nc1=O`: the TGI in the test with SN12C renal, in the test on MOLT-4 leukemia, in the test on U251 CNS, in the test on A498 renal, in the test on NCI-H23 lung and in the test with K-562 leukemia was greater than 100 µM each time.
Regarding `COc1ccc(/C=C2/C[N+](C)(C)C/C(=C/c3ccc(OC)cc3)C2=O)cc1`, the TGI in the test on SN12C renal is greater than 100 µM; with MOLT-4 leukemia, 57.1 µM; in the test on UACC-257 melanoma, greater than 100 µM; in the test with LOX IMVI melanoma, greater than 100 µM; with U251 CNS, greater than 63.9 µM; with A498 renal, greater than 100 µM. Further, the TGI in the test on NCI-H23 lung and with K-562 leukemia was greater than 100 µM in each case.
As to `COC(=O)C(Nc1ccc(OC)cc1)c1ccccc1` (stereo unspecified), the TGI in the test with SN12C renal, with MOLT-4 leukemia, in the test on HS 578T breast, in the test on UACC-257 melanoma, in the test with LOX IMVI melanoma and in the test with NCI-H23 lung was greater than 100 µM throughout. The molecule further gave a TGI in the test with K-562 leukemia greater than 100 µM.
Consider `O=S1(=O)C[C@@H](O)[C@H](O)CS1`, for which the TGI with SN12C renal, in the test on MOLT-4 leukemia, in the test on UACC-257 melanoma, with LOX IMVI melanoma, in the test on U251 CNS and in the test on A498 renal was greater than 100 µM throughout. In addition, the TGI with NCI-H23 lung and with K-562 leukemia was greater than 100 µM in each case.
On to `O=C(O)c1cc2c(cn1)[nH]c1ccccc12`, for which the TGI with SN12C renal, in the test with MOLT-4 leukemia, in the test on UACC-257 melanoma, in the test with LOX IMVI melanoma, with U251 CNS and in the test on NCI-H23 lung was greater than 100 µM each time. For the same molecule, the TGI in the test with K-562 leukemia is greater than 100 µM.
For `O=C1C=Cc2ccccc2/C1=C/c1[nH]c(=O)[nH]c1O`, the GI50 in the test on SN12C renal is 10.1 µM; in the test on MOLT-4 leukemia it was 4.19 µM; in the test on UACC-257 melanoma, 2.93 µM; with LOX IMVI melanoma it was 7 µM; in the test on U251 CNS it was 5.39 µM; with A498 renal, 2.87 µM. For the same molecule, the GI50 in the test on NCI-H23 lung is 8.19 µM; in the test on K-562 leukemia, 2.85 µM; with MDA-MB-231 breast, 13.2 µM. For the same molecule, the TGI in the test on SN12C renal is greater than 100 µM; in the test with MOLT-4 leukemia, greater than 100 µM; with UACC-257 melanoma, greater than 100 µM; with LOX IMVI melanoma, greater than 100 µM; with U251 CNS, 35 µM; in the test with A498 renal, 10.6 µM. For the same molecule, the TGI was greater than 100 µM in the test with NCI-H23 lung, 34 µM with K-562 leukemia and 84.3 µM in the test on MDA-MB-231 breast.
As to `COC(=O)c1nc(NC#N)[nH]c(=O)c1C`, the TGI in the test on SN12C renal, in the test with MOLT-4 leukemia, in the test with UACC-257 melanoma, with LOX IMVI melanoma, in the test with U251 CNS and in the test on A498 renal was greater than 100 µM each time. Besides, the TGI in the test on NCI-H23 lung and in the test on K-562 leukemia was greater than 100 µM in each case.
Take `O=C(c1ccccc1)c1c(C(=O)c2ccccc2)c(-c2ccccc2)c2c(-c3ccccc3)sc(-c3ccccc3)c2c1-c1ccccc1`: the TGI in the test on SN12C renal, in the test on UACC-257 melanoma, in the test with LOX IMVI melanoma, in the test with U251 CNS, with A498 renal and with NCI-H23 lung was greater than 100 µM each time. This molecule showed a TGI with K-562 leukemia greater than 100 µM.
Regarding `Nc1c(-c2nc3ccccc3[nH]2)sc(=S)n1-c1ccccc1`, the TGI in the test on SN12C renal is greater than 100 µM; in the test with MOLT-4 leukemia it was 45.8 µM; in the test on UACC-257 melanoma, greater than 100 µM; in the test with U251 CNS it was greater than 100 µM; with A498 renal, greater than 100 µM; in the test with NCI-H23 lung, greater than 100 µM. The TGI with K-562 leukemia is greater than 100 µM.
`CCOC(=O)C(C)c1cc(C2(C)OCCO2)c(C)o1` (stereo unspecified): the TGI in the test on SN12C renal, in the test with MOLT-4 leukemia, with LOX IMVI melanoma, with U251 CNS, in the test with NCI-H23 lung and with K-562 leukemia was greater than 100 µM each time.
For the molecule `Cc1c2cc[nH]c(=O)c2cc2c(=O)c3cnccc3[nH]c12`, the TGI with SN12C renal, in the test with MOLT-4 leukemia, with UACC-257 melanoma, in the test with LOX IMVI melanoma, in the test with U251 CNS and with A498 renal was greater than 100 µM throughout. Besides, the TGI with NCI-H23 lung and with K-562 leukemia was greater than 100 µM in each case.
In the case of `N.N.NC(CS)C(=O)[O-].NC(CS)C(=O)[O-].[Pt+4]` (stereo unspecified), the GI50 in the test with SN12C renal, with MOLT-4 leukemia, in the test on UACC-257 melanoma, with LOX IMVI melanoma, with U251 CNS and in the test with NCI-H23 lung was greater than 50 µM each time. Further, in the test on K-562 leukemia, the GI50 was greater than 50 µM. For the same molecule, the TGI with SN12C renal, with MOLT-4 leukemia, with UACC-257 melanoma, in the test with LOX IMVI melanoma, in the test with U251 CNS and in the test on NCI-H23 lung was greater than 50 µM in each case. In the test on K-562 leukemia, this molecule returned a TGI greater than 50 µM.
For the molecule `COc1ccc2[nH]c(Cl)c(/C=C3/C(=O)N(C)c4ccccc43)c2c1`, the GI50 with MOLT-4 leukemia was 79.1 µM; in the test with HS 578T breast, greater than 100 µM; in the test on UACC-257 melanoma, greater than 100 µM; in the test on LOX IMVI melanoma it was greater than 100 µM; with U251 CNS, greater than 100 µM; with NCI-H23 lung it was greater than 100 µM. Also, in the test with MDA-MB-231 breast, the GI50 was 36.5 µM. For the same molecule, the TGI in the test on MOLT-4 leukemia, in the test with HS 578T breast, in the test with UACC-257 melanoma, with LOX IMVI melanoma, in the test with U251 CNS and in the test with NCI-H23 lung was greater than 100 µM each time. Further, in the test on MDA-MB-231 breast, the TGI was greater than 100 µM.
With `O=C1OC2(c3ccccc3Oc3ccccc32)c2ccccc21`, the TGI in the test with SN12C renal, in the test with MOLT-4 leukemia, in the test on UACC-257 melanoma, with LOX IMVI melanoma, with U251 CNS and in the test on A498 renal was greater than 100 µM throughout. In addition, the TGI with NCI-H23 lung and in the test on K-562 leukemia was greater than 100 µM each time.

Source of the values: PubChem BioAssay (NCI).
